Molecular target: T1, HIV protease (Human immunodeficiency virus type 1 group M subtype B, UniProt P04585)
T1 construct: made in house; host or cells: Escherichia coli
Assay: biochemical
Conditions: protease expressed in Eschericia coli; peptide substrate 0.5 mg/mL; 50 mM Na acetate, pH 5.5, 30°C, 1 hour
Description: Assay for Inhibition of Microbial Expressed HIV Protease
Inhibition studies of the reaction of the protease expressed in Eschericia coli with a peptide substrate [Val-Ser-Gln-Asn-(betanapthyl)Ala-Pro-Ile-Val, 0.5 mg/mL at the time the reaction is initiated] were in 50 mM Na acetate, pH 5.5, at 30°C for 1 hour. Various concentrations of inhibitor in 1.0 ul DMSO were added to 25 ul of the peptide solution in water. The reaction is initiated by the addition of 15 ul of 0.33 nM protease (0.11 ng) in a solution of 0.133 M Na acetate pH 5.5 and 0.1% bovine serum albumin. The reaction was quenched with 160 ul of 5% phosphoric acid. Products of the reaction were separated by HPLC (VYDAC wide pore 5 cm C-18 reverse phase, acetonitrile gradient, 0.1 % phosphoric acid). The extent of inhibition of the reaction was determined from the peak heights of the products.

| IC50 [nM] | SMILES |
| --- | --- |
| 0.3 to 6 | CC(C)(C)NC(=O)[C@@H]1C[C@@H]2CCCC[C@@H]2CN1C[C@@H](O)C[C@@H](Cc1ccccc1)C(=O)N[C@H]1c2ccccc2C[C@H]1O [A, N-(2(R)-hydroxy-1(S)-indanyl)-2(R)-phenylmethyl-4(S)-hydroxy-5-(2-(3(S)-N'-(t-butylcarbamoyl)-(4aS,8aS)-decahydroisoquinoline)yl)-pentaneamide] |
| 0.3 to 6 | CC(C)(C)NC(=O)[C@@H]1CN(C(=O)OCc2ccccc2)CCN1C[C@@H](O)C[C@@H](Cc1ccccc1)C(=O)N[C@H]1c2ccccc2C[C@H]1O [B, N-(2(R)-hydroxy-1(S)-indanyl)-2(R)-phenylmethyl-4(S)-hydroxy-5-(1-(4-carbobenzyloxy-2(S)-N'-(t-butylcarbamoyl)-piperazinyl))-pentaneamide] |
